Assay results reported in PubChem BioAssay (NCI).
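In this assay, cells in 96-well plates receive the compound at five concentrations for 48 hours. Endpoints are linearly interpolated between the surrounding concentrations. GI50: concentration for 50% inhibition of growth. The concentration for full growth arrest is given as TGI.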

Experiments:
Experiment in all cases: NCI tumour cell line growth inhibition, 48 h
MCF7 breast = system: MCF7 breast
SNB-19 CNS = system: SNB-19 CNS
KM12 colon = system: KM12 colon
BT-549 breast = system: BT-549 breast
A498 renal = system: A498 renal
NCI/ADR-RES ovarian = system: NCI/ADR-RES ovarian
HL-60(TB) leukemia = system: HL-60(TB) leukemia
HOP-92 NSCLC = system: HOP-92 NSCLC
OVCAR-3 ovarian = system: OVCAR-3 ovarian
IGROV1 ovarian = system: IGROV1 ovarian
NCI-H226 lung = system: NCI-H226 lung
NCI-H23 lung = system: NCI-H23 lung
MOLT-4 leukemia = system: MOLT-4 leukemia
HCC-2998 colon = system: HCC-2998 colon
PC-3 prostate = system: PC-3 prostate
A549 NSCLC = system: A549 NSCLC
HCT-15 colon = system: HCT-15 colon
OVCAR-8 ovarian = system: OVCAR-8 ovarian
U251 CNS = system: U251 CNS
TK-10 renal = system: TK-10 renal
HT29 colon = system: HT29 colon
ACHN renal = system: ACHN renal
EKVX NSCLC = system: EKVX NSCLC
SK-OV-3 ovarian = system: SK-OV-3 ovarian
UACC-62 melanoma = system: UACC-62 melanoma
MALME-3M melanoma = system: MALME-3M melanoma
SR leukemia = system: SR leukemia
SK-MEL-5 melanoma = system: SK-MEL-5 melanoma
SF-295 CNS = system: SF-295 CNS
OVCAR-4 ovarian = system: OVCAR-4 ovarian
CCRF-CEM leukemia = system: CCRF-CEM leukemia
LOX IMVI melanoma = system: LOX IMVI melanoma
SK-MEL-2 melanoma = system: SK-MEL-2 melanoma
SF-539 CNS = system: SF-539 CNS
T-47D breast = system: T-47D breast
HOP-62 NSCLC = system: HOP-62 NSCLC
MDA-MB-231 breast = system: MDA-MB-231 breast
SNB-75 CNS = system: SNB-75 CNS
MDA-MB-435 = system: MDA-MB-435
CAKI-1 renal = system: CAKI-1 renal
HS 578T breast = system: HS 578T breast
786-0 renal = system: 786-0 renal
SN12C renal = system: SN12C renal
SW-620 colon = system: SW-620 colon
DU-145 prostate = system: DU-145 prostate
RPMI-8226 leukemia = system: RPMI-8226 leukemia
HCT-116 colon = system: HCT-116 colon
SF-268 CNS = system: SF-268 CNS
UO-31 renal = system: UO-31 renal
COLO 205 colon = system: COLO 205 colon
K-562 leukemia = system: K-562 leukemia
RXF 393 renal = system: RXF 393 renal
M14 melanoma = system: M14 melanoma
SK-MEL-28 melanoma = system: SK-MEL-28 melanoma
NCI-H460 lung = system: NCI-H460 lung
UACC-257 melanoma = system: UACC-257 melanoma
OVCAR-5 ovarian = system: OVCAR-5 ovarian
NCI-H522 lung = system: NCI-H522 lung

With `COc1cc(NCCCCCN=C(N)NC(N)=NC(C)C)c2ncccc2c1` the GI50 (MCF7 breast) was 0.0313 µM, the TGI (MCF7 breast) was 0.16 µM and the GI50 (SNB-19 CNS) was 2.56 µM. It also gave a TGI (SNB-19 CNS) of 12.8 µM, a GI50 (KM12 colon) of 1.07 µM and a TGI (KM12 colon) of 3.28 µM. It also gave a GI50 (BT-549 breast) of 2.03 µM, a TGI (BT-549 breast) of 5.61 µM and a GI50 (A498 renal) of 13.8 µM. It also gave a TGI (A498 renal) of 28.1 µM, a GI50 (NCI/ADR-RES ovarian) greater than 100 µM and a TGI (NCI/ADR-RES ovarian) greater than 100 µM. The GI50 (HL-60(TB) leukemia) was 0.575 µM, the TGI (HL-60(TB) leukemia) was 3.46 µM and the GI50 (HOP-92 NSCLC) was 1.75 µM. It also gave a TGI (HOP-92 NSCLC) of 9.82 µM, a GI50 (OVCAR-3 ovarian) of 0.217 µM and a TGI (OVCAR-3 ovarian) of 0.759 µM. For the same compound, the GI50 (IGROV1 ovarian) was 0.228 µM, the TGI (IGROV1 ovarian) was 0.809 µM and the GI50 (NCI-H226 lung) was 7.52 µM. For the same compound, the TGI (NCI-H226 lung) was 24.8 µM, the GI50 (NCI-H23 lung) was 0.401 µM and the TGI (NCI-H23 lung) was 2.3 µM. The GI50 (MOLT-4 leukemia) was 0.518 µM, the TGI (MOLT-4 leukemia) was 11 µM and the GI50 (HCC-2998 colon) was 0.952 µM. The TGI (HCC-2998 colon) was 4.96 µM, the GI50 (PC-3 prostate) was 0.972 µM and the TGI (PC-3 prostate) was 13.8 µM. It also gave a GI50 (A549 NSCLC) of 11.6 µM, a TGI (A549 NSCLC) of 26.3 µM and a GI50 (HCT-15 colon) of 34.1 µM. It also gave a TGI (HCT-15 colon) greater than 100 µM, a GI50 (OVCAR-8 ovarian) of 3.08 µM and a TGI (OVCAR-8 ovarian) of 17.2 µM. It also gave a GI50 (U251 CNS) of 1.69 µM, a TGI (U251 CNS) of 11.8 µM and a GI50 (TK-10 renal) of 6.14 µM. It also gave a TGI (TK-10 renal) of 19.9 µM, a GI50 (HT29 colon) of 4.44 µM and a TGI (HT29 colon) greater than 42.3 µM. It also gave a GI50 (ACHN renal) of 14.8 µM, a TGI (ACHN renal) of 31.2 µM and a GI50 (EKVX NSCLC) of 2.28 µM. For the same compound, the TGI (EKVX NSCLC) was 18.5 µM, the GI50 (SK-OV-3 ovarian) was 10.9 µM and the TGI (SK-OV-3 ovarian) was 23.5 µM. For the same compound, the GI50 (UACC-62 melanoma) was 2.69 µM, the TGI (UACC-62 melanoma) was 8.96 µM and the GI50 (MALME-3M melanoma) was 0.43 µM. It also gave a TGI (MALME-3M melanoma) of 1.91 µM, a GI50 (SR leukemia) of 2.08 µM and a TGI (SR leukemia) of 15.8 µM. For the same compound, the GI50 (SK-MEL-5 melanoma) was 1.44 µM, the TGI (SK-MEL-5 melanoma) was 3.01 µM and the GI50 (SF-295 CNS) was 13 µM. It also gave a TGI (SF-295 CNS) of 29.2 µM, a GI50 (OVCAR-4 ovarian) of 0.0363 µM and a TGI (OVCAR-4 ovarian) of 0.633 µM. For the same compound, the GI50 (CCRF-CEM leukemia) was 2.2 µM, the TGI (CCRF-CEM leukemia) was 17.4 µM and the GI50 (LOX IMVI melanoma) was 0.495 µM. For the same compound, the TGI (LOX IMVI melanoma) was 2.79 µM, the GI50 (SK-MEL-2 melanoma) was 1.95 µM and the TGI (SK-MEL-2 melanoma) was 5.36 µM. The GI50 (SF-539 CNS) was 2.3 µM, the TGI (SF-539 CNS) was 12.8 µM and the GI50 (T-47D breast) was 0.302 µM. It also gave a TGI (T-47D breast) of 1.71 µM, a GI50 (HOP-62 NSCLC) of 5.14 µM and a TGI (HOP-62 NSCLC) of 19.1 µM. For the same compound, the GI50 (MDA-MB-231 breast) was 0.531 µM, the TGI (MDA-MB-231 breast) was 4.47 µM and the GI50 (SNB-75 CNS) was 0.666 µM. The TGI (SNB-75 CNS) was 4.4 µM, the GI50 (MDA-MB-435) was 3.61 µM and the TGI (MDA-MB-435) was 14.7 µM. For the same compound, the GI50 (CAKI-1 renal) was greater than 73.1 µM, the TGI (CAKI-1 renal) was greater than 100 µM and the GI50 (HS 578T breast) was 2.45 µM. The TGI (HS 578T breast) was 12.7 µM, the GI50 (786-0 renal) was 12.2 µM and the TGI (786-0 renal) was 26.6 µM. For the same compound, the GI50 (SN12C renal) was 2.32 µM, the TGI (SN12C renal) was 14.8 µM and the GI50 (SW-620 colon) was 0.927 µM. It also gave a TGI (SW-620 colon) of 14 µM, a GI50 (DU-145 prostate) of 10.3 µM and a TGI (DU-145 prostate) of 22.3 µM. The GI50 (RPMI-8226 leukemia) was 1.26 µM, the TGI (RPMI-8226 leukemia) was 20 µM and the GI50 (HCT-116 colon) was 0.392 µM. The TGI (HCT-116 colon) was 10.5 µM, the GI50 (SF-268 CNS) was 0.689 µM and the TGI (SF-268 CNS) was 13.8 µM. It also gave a GI50 (UO-31 renal) of 27.1 µM, a TGI (UO-31 renal) greater than 100 µM and a GI50 (COLO 205 colon) of 0.468 µM. For the same compound, the TGI (COLO 205 colon) was 1.74 µM, the GI50 (K-562 leukemia) was 0.607 µM and the TGI (K-562 leukemia) was 19.3 µM. The GI50 (RXF 393 renal) was 6.03 µM, the TGI (RXF 393 renal) was 18.3 µM and the GI50 (M14 melanoma) was 6.12 µM. For the same compound, the TGI (M14 melanoma) was 20.1 µM, the GI50 (SK-MEL-28 melanoma) was 2.92 µM and the TGI (SK-MEL-28 melanoma) was 10.4 µM. For the same compound, the GI50 (NCI-H460 lung) was 4.49 µM, the TGI (NCI-H460 lung) was 18.1 µM and the GI50 (UACC-257 melanoma) was 1.04 µM. The TGI (UACC-257 melanoma) was 4.81 µM, the GI50 (OVCAR-5 ovarian) was 6.09 µM and the TGI (OVCAR-5 ovarian) was 20.2 µM. It also gave a GI50 (NCI-H522 lung) of 1.18 µM and a TGI (NCI-H522 lung) of 4.58 µM.
